What was measured:
Format in all cases: cell-based
ARPE-19 cells = assay: Cell viability (XTT assay); settings: Homo sapiens, 48 h, read-out: A. Safety IC50 on ARPE-19 cells
Method: ARPE-19 cells were incubated in a 96-well plate with different effectors for 48 hours. Fifty microliters of sodium 3′-[1-phenylaminocarbonyl)-3,4-tetrazolium]-bis(4-methoxy-6-nitro) benzene sulfonic acid hydrate (XTT) reagent was added to each well. The test is based on the cleavage of the yellow tetrazolium salt XTT to form an orange formazan dye by metabolically active cells. This bio-reduction occurs in viable cells only and is associated with NAD(P)H production through glycolysis. Therefore, the amount of formazan dye measured at 490 nm, correlates directly with the number of metabolically active cells reflecting cell proliferation, viability, and cytotoxicity. Each assay was performed in quadruplicate.
(§1) All compounds were evaluated in different experiments. Results are represented as the mean of three independent experiments. A. ARPE-19 cells were treated with dose response of compound for 48 h. Values are reported as IC50 measured with the XTT assay. B and C. ARPE-19 cells were treated with 5 μM (B) or 1 μM (C) compound then with 200 μM H2O2 for 2 h. ROS were analyzed by cytometry. […] As illustrated in FIG. 1A. D. ARPE-19 cells were treated with 2.5 μM compound for 48 h and the level of CXCL1 mRNA was evaluated by qPCR. […] As illustrated in FIG. 1B. E. TIME cells were pre-treated with 2.5 μM compound for 1 h then stimulated with 100 ng/ml CXCL8 for 15 min p-ERK levels were analyzed by immunoblotting. HSP90 served as loading control. […] As illustrated in FIG. 1C.

ROS = ROS labeling by cytometry after H2O2; settings: Homo sapiens, ARPE-19; for inhibition at 1 µM: 1 μM compound then 200 μM H2O2 for 2 h, read-out: C. ROS inhibition 1 μM - ARPE-19 cells; for inhibition at 5 µM: 5 μM compound then 200 μM H2O2 for 2 h, read-out: B. ROS inhibition 5 μM - ARPE-19 cells
Method: ARPE-19 cells were treated with MCK349 30 minutes then with 200 μM H2O2 for 2 h. 10 μM DCF-DA (2′,7′-Dichlorofluorescein diacetate) were added on cell media for 30 min. Cells were rinsed then detached (trypsin) and resuspended in PBS 0.5% BSA and 2 mM EDTA. The cells are analyzed by cytometry (ROS labeled with DCFDA-FITC).
as §1

ERK activation (p-ERK) = assay: p-ERK immunoblotting after CXCL8 stimulation; settings: 2.5 μM compound 1 h then 100 ng/ml CXCL8 for 15 min; read-out: E. p-ERK inhibition - TIME
Method: Cells were lysed in buffer containing 3% SDS, 10% glycerol and 0.825 mM Na2HPO4. 30 to 50 μg of proteins separated on 10% SDS-PAGE, transferred onto a PVDF membrane and then exposed to the appropriate antibodies. Proteins were visualized with the ECL system using horseradish peroxidase-conjugated anti-rabbit or anti-mouse antibodies.
as §1

Row | SMILES | IC50 (ARPE-19 cells) [µM] | inhibition at 1 µM (ROS) [%] | inhibition at 5 µM (ROS) [%] | inhibition at 2.5 µM (ERK activation (p-ERK)) [%]
1 | Nc1nc(Nc2cccnc2)nn1Cc1ccccc1 [MCK254, 1-benzyl-N^3-(pyridin-3-yl)-1H-1,2,4-triazole-3,5-diamine] | > 25 | < 50 | < 50 | < 50
2 | Nc1nc(Nc2ccccn2)nn1Cc1cccc(C(F)(F)F)c1 [MCK282, N^3-(pyridin-2-yl)-1-(3-(trifluoromethyl)benzyl)-1H-1,2,4-triazole-3,5-diamine] | > 25 | < 50 | < 50 | ≥ 50
3 | Nc1nc(Nc2ccccc2)nn1Cc1cc(F)cc(F)c1 [MCK274, 1-(3,5-difluorobenzyl)-N^3-phenyl-1H-1,2,4-triazole-3,5-diamine] | > 25 | ≥ 50 | ≥ 50 | < 50
4 | Nc1nc(Nc2ccccn2)nn1Cc1cccc([N+](=O)[O-])c1 [MCK292, 1-(3-nitrobenzyl)-N^3-(pyridin-2-yl)-1H-1,2,4-triazole-3,5-diamine] | > 25 | < 50 | < 50 | ≥ 50
5 | Nc1nc(Nc2ccccn2)nn1Cc1cccc(Br)c1 [MCK276, 1-(3-bromobenzyl)-N^3-(pyridin-2-yl)-1H-1,2,4-triazole-3,5-diamine] | > 25 | < 50 | < 50 | ≥ 50
6 | Nc1nc(Nc2ccccc2)nn1Cc1ccc(Cl)cc1 [MCK272, 1-(4-chlorobenzyl)-N^3-phenyl-1H-1,2,4-triazole-3,5-diamine] | > 25 | < 50 | ≥ 50 | ≥ 50
7 | Nc1nc(Nc2ccccc2)n(Cc2ccccc2)n1 [MCK248, 1-benzyl-N^5-phenyl-1H-1,2,4-triazole-3,5-diamine] | > 25 | < 50 | ≥ 50 | < 50
8 | Nc1nc(Nc2ccccn2)nn1CC(=O)c1cccc([N+](=O)[O-])c1 [MCK295, 2-(5-amino-3-(pyridin-2-ylamino)-1H-1,2,4-triazol-1-yl)-1-(3-nitrophenyl)ethan-1-one] | > 25 | < 50 | < 50 | ≥ 50
9 | Nc1nc(Nc2ccccc2)nn1Cc1ccc([N+](=O)[O-])cc1 [MCK288] | > 25 | ≥ 50 | ≥ 50 | < 50
10 | Nc1nc(Nc2ccccn2)nn1Cc1c(F)cccc1F [MCK259, 1-(2,6-difluorobenzyl)-N^3-(pyridin-2-yl)-1H-1,2,4-triazole-3,5-diamine] | > 25 | < 50 | < 50 | ≥ 50
11 | COC(=O)c1ccc(Nc2nc(N)n(Cc3cccc(Br)c3)n2)cc1 [MCK348, methyl-4-((5-amino-1-(3-bromobenzyl)-1H-1,2,4-triazol-3-yl)amino)benzoate] | > 25 | ≥ 50 | ≥ 50 | ≥ 50
12 | Nc1nc(Nc2ccc(Cl)cc2)n(Cc2cccc(Br)c2)n1 [MCK343, 1-(3-bromobenzyl)-N^5-(4-chlorophenyl)-1H-1,2,4-triazole-3,5-diamine] | > 25 | < 50 | ≥ 50 | ≥ 50
13 | Nc1nc(Nc2ccccc2)n(Cc2cccc(Br)c2)n1 [MCK339, 1-(3-bromobenzyl)-N^5-phenyl-1H-1,2,4-triazole-3,5-diamine] | > 25 | < 50 | ≥ 50 | < 50
14 | Cc1ccc(Nc2nc(N)nn2Cc2cccc(Br)c2)cc1 [MCK341, 1-(3-bromobenzyl)-N^5-(4-methylphenyl)-1H-1,2,4-triazole-3,5-diamine] | > 25 | ≥ 50 | ≥ 50 | < 50
15 | Nc1nc(Nc2ccccn2)nn1Cc1ccccc1[N+](=O)[O-] [MCK289, 1-(2-nitrobenzyl)-N^3-(pyridin-2-yl)-1H-1,2,4-triazole-3,5-diamine] | > 25 | ≥ 50 | ≥ 50 | < 50
16 | Nc1nc(Nc2ccccc2)n(CCc2ccccc2)n1 [MCK300, 1-phenethyl-N^5-phenyl-1H-1,2,4-triazole-3,5-diamine] | > 25 | < 50 | < 50 | ≥ 50
17 | Nc1nc(Nc2ccccn2)nn1Cc1ccccc1 [MCK253, 1-benzyl-N^3-(pyridin-2-yl)-1H-1,2,4-triazole-3,5-diamine] | > 25 | < 50 | < 50 | < 50
18 | Nc1nc(Nc2cccnc2)nn1Cc1cccc(Br)c1 [MCK351, 1-(3-bromobenzyl)-N^3-(pyridin-3-yl)-1H-1,2,4-triazole-3,5-diamine] | > 25 | < 50 | < 50 | ≥ 50
19 | CC(C)c1ccc(Cn2nc(N)nc2Nc2ccccc2)cc1 [MCK262, 1-(4-isopropylbenzyl)-N^5-phenyl-1H-1,2,4-triazole-3,5-diamine] | > 25 | ≥ 50 | ≥ 50 | ≥ 50
20 | COc1cc(Cn2nc(Nc3ccccc3)nc2N)cc(OC)c1OC [MCK298, N^3-phenyl-1-(3,4,5-trimethoxybenzyl)-1H-1,2,4-triazole-3,5-diamine] | > 25 | < 50 | < 50 | ≥ 50
21 | Nc1nc(Nc2ccccc2)nn1CCc1ccccc1 [MCK301, 1-phenethyl-N^3-phenyl-1H-1,2,4-triazole-3,5-diamine] | > 25 | < 50 | < 50 | < 50
22 | Nc1nc(Nc2ccccc2)nn1Cc1ccccc1[N+](=O)[O-] [MCK297, 1-(2-nitrobenzyl)-N^3-phenyl-1H-1,2,4-triazole-3,5-diamine] | > 25 | < 50 | < 50 | ≥ 50
23 | Nc1nc(Nc2ccc(Br)cc2)nn1Cc1cccc(Br)c1 [MCK346, 1-(3-bromobenzyl)-N^3-(4-bromophenyl)-1H-1,2,4-triazole-3,5-diamine] | > 25 | ≥ 50 | ≥ 50 | ≥ 50
24 | Nc1nc(Nc2ccccc2)nn1Cc1c(Cl)cccc1Cl [MCK268, 1-(2,6-dichlorobenzyl)-N^3-phenyl-1H-1,2,4-triazole-3,5-diamine] | > 25 | < 50 | ≥ 50 | ≥ 50
25 | COc1cccc(Cn2nc(Nc3ccccc3)nc2N)c1 [MCK261, 1-(3-methoxybenzyl)-N^3-phenyl-1H-1,2,4-triazole-3,5-diamine] | > 25 | < 50 | ≥ 50 | ≥ 50
26 | Nc1nc(Nc2ccccc2)nn1Cc1cccc(Br)c1 [MCK264, 1-(3-bromobenzyl)-N^3-phenyl-1H-1,2,4-triazole-3,5-diamine] | > 25 | ≥ 50 | ≥ 50 | ≥ 50
27 | Cc1ccccc1Cn1nc(Nc2ccccc2)nc1N [MCK250, 1-(2-methylbenzyl)-N^3-phenyl-1H-1,2,4-triazole-3,5-diamine] | > 25 | ≥ 50 | ≥ 50 | < 50
28 | Nc1nc(Nc2ccccc2)nn1CC(=O)c1ccccc1 [MCK299, 2-(5-amino-3-(phenylamino)-1H-1,2,4-triazol-1-yl)-1-phenylethan-1-one] | > 25 | < 50 | < 50 | ≥ 50
29 | Cc1ccc(Cn2nc(Nc3ccccn3)nc2N)cc1 [MCK279, 1-(4-methylbenzyl)-N^3-(pyridin-2-yl)-1H-1,2,4-triazole-3,5-diamine] | > 25 | < 50 | < 50 | ≥ 50
30 | Nc1nc(Nc2ccccn2)nn1Cc1ccc(Cl)cc1 [MCK280, 1-(4-chlorobenzyl)-N^3-(pyridin-2-yl)-1H-1,2,4-triazole-3,5-diamine] | > 25 | < 50 | < 50 | ≥ 50
